Several values for one entry are separate records, joined by “and”; a condition that tells them apart may be missing. Equal values may be shown once.
What was measured:
[1] = system: human C1q; assay: Reverse ELISA: inhibition of PAP immune complex binding to C1q coated plates
Text: For this reason, a “reverse ELISA” technique has been used to assess binding of the Fc region to ligands that bind to immune complexed IgG Fc. In a reverse ELISA, the enzyme (e.g., HRP) is not covalently conjugated to the Fc portion of the secondary antibody. Rather, a preformed immune complex of peroxidase-rabbit (or mouse) anti-peroxidase IgG (“PAP” complex) is used. […] In the reverse ELISA system, an Fc CH2-CH3 cleft binding ligand (e.g., purified human C1q) was bound to microwell plates. In the absence of competitor, PAP complexes bound to the immobilized ligand and the reaction between HRP and its substrate produces a signal. This signal was reduced by polypeptides and compounds that inhibited PAP binding to the immobilized ligand.
PAP complexes were formed mixing 2 μl of rabbit anti-peroxidase (Sigma Chemicals, St. Louis, Mo.; Cat. No. P7899) with 50 μl of peroxidase (Sigma-Aldrich, Cat. No. P6782) in 1 ml distilled water. PAP (100 μl) were pre-incubated with 100 μl of peptide for one hour, 100 μl were pre-incubated with 100 μl of peptide or human C1q (Quidel Corp., San Diego, Calif.) for one hour. The C1q/PAP and peptide/PAP mixtures (100 μl) were incubated with C1q coated plates for 30 minutes. After washing, plates were incubated with ATBS (Quidel Corp.) for 15 minutes and read at 405 nm.

[2] = system: mice having induced ITP; assay: In vivo treatment of ITP induced by rabbit anti-platelet antibody, platelet counting by flow cytometry; set-up: species or system CD-1 mice; conditions: for Platelet counts, individual mice: intraperitoneal, 24 hours, listed as AP; for Platelet counts, mean: 3 mice, ITP alone mean 170.7, Nil 1016
Description: Mice: CD-1 mice approximately 6-8 weeks of age were obtained from Charles River (Montreal). The animals were housed 3-5 per cage in filter-topped cages. The temperature and relative humidity were maintained at […] and 35-70%, respectively, and a 12 hour light/dark cycle was used. The mice were fed rodent chow and water ad libitum.
Anti-platelet antibodies to induce ITP: A rabbit anti-platelet antibody (Inter-Cell Technologies, Inc., Jupiter, Fla.; Cat. No. A31440) was used to induce ITP. Each mouse received 10 μl antibody-containing serum, diluted with 190 μl PBS for injection, such that the final injection volume was 200 μl for all groups injected with anti-platelet antibody.
On the day of use, one vial of rabbit anti-platelet antibody was removed from the freezer, placed in a 22° C. water bath, and shaken. The tube was checked every 30 seconds, and when it was completely thawed it was placed in a microcentrifuge and centrifuged at 10,000×g (11,000 rpm) for 10 minutes at 4° C. The supernatant fluid was transferred to a new tube and the pellet was discarded. The supernatant was placed on ice until used or diluted, as appropriate. Unused portions of the sera were discarded.
Therapeutic treatment of ITP: IVIg was used as a standard control treatment for the ITP induced by the rabbit anti-platelet antibody. The IVIg was Gamimmune® N, 10%. Treatment with IVIg consisted of an intraperitoneal injection of 50 mg (500 μl) IVIg, a dose that was equivalent to a dose of 2,000 mg/kg body weight.
Platelet enumeration: All mice were bled via the saphenous vein. 50 μL of blood were collected into 450 μL PBS/1% EDTA. The blood was further diluted in PBS/1% EDTA. Platelets were enumerated by flow cytometry with a Guava microcapillary cytometer (Guava EasyCyteMini, Guava Technologies, Inc., Hayward, Calif.), using forward scatter (FSC) versus side scatter (SSC) to gate platelets.
Peptides used to inhibit ITP: Peptides having the amino acid sequences set forth in SEQ ID NO:2 ([…]), SEQ ID NO:20 ([…]), and a control peptide in which Trp7, Val13 and Trp14 of SEQ ID NO:20 were replaced by alanines ([…]; SEQ ID NO:57) were tested for their ability to inhibit ITP. Alanine substation of Val13 and Trp14 causes a decrease in binding affinity (measured by ΔΔG, where G=Gibbs Energy) of greater than 1,000 fold.
Peptides were stored at −20° C. until the day of use. On the day of use, peptides were removed from the freezer, placed in a 22° C. water bath, shaken, and checked every 30 seconds for thawing. When thawed, the peptides were placed on ice until use. For samples that received a 10× dose of peptide, the following were sequentially added to a 1.5 ml polypropylene Eppendorf tube: 623 μl PBS (pH 7.22), 35 μL rabbit anti-plaletet IgG, and 42 μl peptide, with mixing after each addition. For samples having a 100× dose of peptide, the following were added sequentially to a 1.5 ml polypropylene Eppendorf tube: 245 μl PBS (pH 7.22), 35 μL rabbit anti-plaletet IgG, and 420 μl peptide, with mixing after each addition. The peptides were incubated for at least 30 minutes at 22° C. prior to injection into mice. (A 15 minute incubation in the laboratory, transport of the mixtures to the Vivarium, and injection took roughly an additional 30 minutes.)
The final volume of each peptide mixture was 700 μL, which was sufficient for injection of 3 mice (200 μl/mouse, plus 100 μl to cover dead volume). For the 10× dose/mouse of peptide, 12 μg of peptide (12 μl of 1 mg/ml solution) was mixed with 100 μg of the rabbit anti-platelet IgG (10 μl of 10 mg/ml solution). The volume of 700 μl was about 3.5× the volume injected per mouse (200 μl). To obtain the dose of peptide and rabbit IgG for the 700 μl final volume, dose of peptide or Rabbit IgG per mouse was multiplied by 3.5 (e.g., 12 μl peptide/mouse×3.5=42 μl, 10 μl Rabbit IgG/mouse×3.5=35 μl). PBS (623 μl, pH 7.22) was added to make up the final volume 700 μl. […]

[3] = ITP + 10X molar amount of peptide
[4] = ITP + 100X molar amount of peptide

Ala-Pro-Pro-Asp-Cys-Ala-Trp-His-Leu-Gly-Glu-Leu-Val-Trp-Cys-Thr (APPDCAWHLGELVWCT) [SEQ ID NO:20]
OD 405 nm ([1]; PAP pre-incubated with peptide or C1q one hour, C1q coated plates, lower OD = more inhibition, positive control 2.355): 0.389 | Inhibition of C1q binding (ranking in words) ([1]; summary of Table 1): greatest inhibition of C1q binding | Platelet counts, individual mice [2, 3]: 2.03e+11 L⁻¹ and 2.61e+11 L⁻¹ and 1.97e+11 L⁻¹ | Platelet counts, mean [2, 3]: 2.203e+11 L⁻¹ | Platelet counts, individual mice [2, 4]: 7.59e+11 L⁻¹ and 6.42e+11 L⁻¹ and 4.33e+11 L⁻¹ | Platelet counts, mean [2, 4]: 6.113e+11 L⁻¹ | Effect on induced ITP, 100× versus 10× ([2]; first experiment, 100× molar): greater effect than 10× Peptide AP | Effect on induced ITP ([2]; first experiment, Table 4, 10× and 100× molar): ameliorated induced ITP | Amelioration of induced ITP/AITP compared with IVIg ([2]; second experiment, FIG. 1, 10× molar and 100× molar, 24 hours after treatment): ameliorated the induced ITP/AITP better than the currently accepted treatment for ITP (IVIg)

From patent US20120021988A1, “METHODS FOR TREATING IMMUNE THROMBOCYTOPENIA” (priority 2007, published 2012)
